Reference: patent US8158589B2, “Peptides with the capacity to bind to transforming growth factor β1 (TGF-β1)” (Proyecto Biomedicine Cima, S.L., priority 2003, dated 2012)
Ends that are not written are not given here.

Tests used:
TGF-β1 [1] = biological target: T1, TGF-β1 (Mus musculus, UniProt P04202); assay: Bleomycin-induced pulmonary fibrosis, preventive treatment started two days after bleomycin; format: in vivo, mice
T1 construct: from tissue; host or cells: liver of Balb/C mice (CCl4 model); lung of C57BL/6 mice (bleomycin model)
Method: Female C57BL/6 mice (6-8 weeks of age) were obtained from Harlan SL (Barcelona, Spain) and maintained in accordance with the ethical committee of Universidad de Navarra (Spain) for the experimental use of animals. Lung injury was induced with 0.08 units/mouse of bleomycin sulfate (Sigma, Spain) diluted in 200 μl of phosphate buffered saline (PBS). Briefly, the suspension of bleomycin was instilled by pippeting into the nose of mice previously anesthetized with 2% isoflurane vapor. PBS was instilled in mice as a negative control for pulmonary fibrosis (PF), following the same procedures. Peptide treatment was started two days after bleomycin challenge and it was administered intraperitoneally in 500 μl of PBS on alternate days. Mice received high (75 μg/mouse) or low (25 μg/mouse) doses of P17, or the high dose (75 μg/mouse) of control peptide P301. […] To study the therapeutic effect of P17 in the development of fibrosis, it was administered daily ten days after bleomycin challenge, once fibrosis was established. Twenty six days after bleomycin instillation, mice were sacrificed and lung samples were fixed in order to evaluate histological damage.
Total RNA was purified from IMR-90 fibroblasts and whole lung samples using Ultraspec RNA (Biotecx; Houston, Tex.) according to the manufacturer's instructions. First, 1 μg of RNA was incubated with Dnase I (2 U/μl) (Gibco-BRL) for 30 min at 37° C. Then, samples were reverse-transcribed with the M-MLV Reverse transcriptase (Gibco-BRL) in the presence of RNaseOUT (Gibco-BRL) with ramdon hexamers and poly (dT) oligos according to the manufacturer's protocol. Expression of human Connective Tissue Growth Factor (CTGF) mRNA induced by TGF-β1 in IMR-90 fibroblasts was measured by real time RT-PCR using an ICycler and IQ SYBR Supermix (Bio-Rad, Italy). Actin was used as endogenous reference housekeeping gene. For in vivo analysis, expression of murine Fibronectin (FN), extra domain A of Fibronectin (EDA-FN), Collagen type I and Interferon gamma (IFN-γ) was measured in lungs, using Histone 3 as internal control. The amount of each transcript was expressed by the formula: 2^ΔCt (ΔCt=Ct(control gene)−Ct(gene)), wherein Ct is the threshold cycle number at which an increase in the signal associated with exponential growth of PCR products begins to be detected using Bio-Rad analysis software.
Lungs were fixed by inflation with 4% paraformaldehyde overnight and dehydrated in 70% ethanol. Tissue was embedded in paraffin wax, 3 μm thick sections were prepared and stained with Masson's trichrome to measure collagen deposition. Percentage of fibrosis in the lung was evaluated by light microscopy by three different qualified persons using a blinded system.
Dewaxed and rehydrated lung tissue sections were subjected to endogenous peroxidase inactivation with a blocking reagent (DakoCytomation, Denmark) for 10 min. They were then incubated for two hours with a 1/50 dilution in PBS of mouse anti-human α-SMA monoclonal antibody (DakoCytomation) that cross-reacts with mouse α-SMA. Next, sections were incubated for 1 hour with a peroxidase-labeled polyclonal rabbit anti-mouse immunoglobulin (DakoCytomation). Peroxidase activity was visualized using DAB+ Chromogen (DakoCytomation) as substrate and sections were counterstained with Harris hematoxylin. Expression of αSMA was evaluated by light microscopy and expressed as percentage of α-SMA positive area.
Lymphocyte infiltrate in the lungs was also determined by immunohistochemical analysis. In this case, lung sections were incubated with a mouse anti-human αCD3 monoclonal antibody that cross-reacts with mouse CD3 (NeoMarkers, CA) and then with an anti-mouse immunoglobulin coupled with peroxidase (DakoCytomation). CD3-positive cells were counted in a whole lobe (about 20 fields).

TGF-β1 [2] = biological target: TGF-β1 (Homo sapiens, UniProt P01137); assay: α-SMA expression induced by TGF-β1 in IMR-90 lung fibroblasts, western blot; format: cell-based; parameters: purchased R&D Systems; host or cells: added to IMR-90 human lung fibroblasts; conditions: IMR-90 cells, 5 ng/ml TGF-β1, peptide 100 μg/ml, 24 hours
Method: IMR-90 human lung fibroblasts (ATCC, Manassas, Va.) were cultured in EMEM medium (Cambrex, Belgium) supplemented with 10% fetal bovine serum (FBS), 1 mM sodium pyruvate, 0.1 mM nonessential amino acids, 100 U/ml penicillin and 100 μg/ml streptomycin (Gibco BRL, UK). For experiments, 6×10^4 cells/well were cultured in 6-well plates in 2 ml of medium and when they were 80% confluent, medium was replaced with serum-free EMEM for 48 h to induce quiescence. TGF-β1 (5 ng/ml) and P17 (100 μg/ml) were co-incubated for 90 min at 37° C. to allow binding of both molecules before addition to cell cultures. Quiescent cells were then stimulated with TGF-β1 and/or P17 for up to 6 or 24 h. After these incubation periods, fibroblasts were harvested for gene and protein analysis, respectively.
To assess alpha-Smooth Muscle Actin (αSMA) expression, IMR-90 fibroblasts were lysed with RIPA buffer containing 10 U/ml leupeptin, 10 U/ml pepstatin, 1 mM phenylmethanesulfonylfluoride (PMSF), 1 mM Na3VO4 and 1 mM NaF. […] Membranes were analyzed for expression of αSMA protein using anti-αSMA monoclonal antibody (Sigma-Aldrich) at a dilution of 1:2000 and horseradish peroxidase-labeled anti-mouse IgG (Sigma-Aldrich). Expression of actin was detected using anti-actin monoclonal antibody (Sigma-Aldrich) (1:2000 dilution) and horseradish peroxidase-labeled anti-rabbit IgG (Sigma-Aldrich). […]

[3] = 75 μg/mouse, 14 days after bleomycin instillation, RT-PCR

T1 sequence (P04202 279-390 limits assumed): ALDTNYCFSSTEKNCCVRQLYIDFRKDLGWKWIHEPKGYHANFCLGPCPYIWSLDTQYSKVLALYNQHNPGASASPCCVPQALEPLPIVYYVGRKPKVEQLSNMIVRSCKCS
TGF-β1 (Homo sapiens, UniProt P01137), sequence (P01137 279-390 limits assumed): as the sequence (P04202 279-390 limits assumed) above, with S75A counted along it

Sequence: KRIWFIPRSSWYERA [SEQ ID NO: 17, KRIWFIPRSSWYERA]
- lung fibrosis (Masson's Trichrome) (TGF-β1 [1]; 25 μg/mouse intraperitoneally on alternate days from day 2, day 26): No beneficial effect
- lung fibrosis (Masson's Trichrome) (TGF-β1 [1]; 75 μg/mouse intraperitoneally on alternate days from day 2, day 26, vs control peptide): significant decrease of fibrosis
- collagen type I mRNA in lungs (TGF-β1 [1]; [3]): significant reduction
- fibronectin mRNA in lungs (TGF-β1 [1]; [3]): significantly downregulated
- EDA-FN mRNA in lungs (TGF-β1 [1]; 75 μg/mouse, 14 days after bleomycin instillation, vs control peptide): lower expression levels
- IFN-γ mRNA expression in lungs (TGF-β1 [1]; 75 μg/mouse, RT-PCR): upregulated
- T lymphocytes (CD3+ cells) in lung sections (TGF-β1 [1]; 75 μg/mouse, vs bleomycin mice with or without P301): significant reduction
- IL-10 or IL-4 mRNA expression in lungs (TGF-β1 [1]; P17 vs P301 control peptide, RT-PCR, data not shown): did not show any significant difference
- areas of myofibroblasts (α-SMA expression) in lungs (TGF-β1 [1]; high dose 75 μg/mouse, immunohistochemistry): fewer areas of myofibroblasts
- α-SMA expression induced by TGF-β1 (TGF-β1 [2]): inhibited
